Results published in patent publication US8247422B2, “Use of condensed pyrimidine derivatives for the treatment of rheumatoid arthritis” (priority 2007, dated 2012).

Legend:
rheumatoid arthritis = conditions: RA patients; cited from earlier work
[1] = tested on: adjuvant-induced rheumatoid arthritis in rats; assay: Adjuvant-induced RA (AIA) model in rats; type: in vivo, Male Lewis rats; set-up: % Inhibition of swelling in each time interval relative to negative control: concentration or dose not given beside the values; conditions: for Mean right hind paw volume (ml water displaced): CFA treated paw, acute phase; for Mean left hind paw volume (ml water displaced): CFA untreated paw, delayed phase
Procedure: The ability of compounds of formula I to treat adjuvant-induced rheumatoid arthritis in rats was examined. The AIA model is one thought mainly to involve T cell-mediated mechanisms.
Male Lewis rats weighing 200±10 g were housed in groups of 6 with free access to food and water. 0.1 ml CFA (Mycobacterium tuberculosis 3 mg/ml) was injected into the subplantar region of the right bind paw of each rat on day 1 of the study.
Test substances were first dissolved in NaOH (if required) as explained above then suspended in 2% Tween 80 to a range of concentrations. 10 ml/kg was administered by oral gavage for 21 consecutive days, beginning (on day 1) 1 hour before injection of CFA. 2% Tween 80 was used as a negative control and methotrexate in 2% Tween 80 as a positive control.
Right hind paw volumes were measured by water displacement on day 0, 4 hours after the CFA injection on day 1, and on days 7, 14, and 21. Left hind paw volumes were measured by water displacement on days 0, 1, 7, 14, and 21. […] 30% or more reduction in paw volume relative to the negative control was considered significant anti-inflammatory activity. Body weight was also recorded on days 1, 7, 14, and 21. Symptoms of swelling in the front paws, tail, nose and ears were recorded on day 21.

[2] = tested on: collagen-induced rheumatoid arthritis in mice
[3] = in vivo; cited from earlier work

For `CN(Cc1cnc2nc(N)nc(N)c2n1)c1ccc(C(=O)N[C@@H](CCC(=O)O)C(=O)O)cc1` [MTX, methotrexate], the “patients who do not respond sufficiently well to treatment with methotrexate alone” value (rheumatoid arthritis) is listed as “around 35%”, the “Mean right hind paw volume (ml water displaced)” value (“Mean right hind paw volume” below) ([1]; day 0, oral gavage) is listed as 1.06 mL and the “Mean right hind paw volume” value ([1]; day 1 (4 hours after CFA), oral gavage) is listed as 1.56 mL. The “Mean right hind paw volume” value ([1]; day 7, oral gavage) was 1.79 mL, the “Mean right hind paw volume” value ([1]; day 14, oral gavage) was 1.48 mL and the “Mean right hind paw volume” value ([1]; day 21, oral gavage) was 1.37 mL. For the same molecule, the “Mean left hind paw volume (ml water displaced)” value (“Mean left hind paw volume” below) ([1]; day 0, oral gavage) was 1.06 mL, the “Mean left hind paw volume” value ([1]; day 1, oral gavage) was 1.06 mL and the “Mean left hind paw volume” value ([1]; day 7, oral gavage) was 1.08 mL. For the same molecule, the “Mean left hind paw volume” value ([1]; day 14, oral gavage) was 1.10 mL, the “Mean left hind paw volume” value ([1]; day 21, oral gavage) was 1.14 mL and the “% Inhibition of swelling in each time interval relative to negative control” value ([1]; left hind paw (CFA untreated), days 0-14) was 95%. For the same molecule, the “% Inhibition of swelling in each time interval relative to negative control” value ([1]; left hind paw (CFA untreated), days 0-21) was 94%, the “% Inhibition of swelling in each time interval relative to negative control” value ([1]; right hind paw (CFA treated), days 0-1) was 15% and the “% Inhibition of swelling in each time interval relative to negative control” value ([1]; right hind paw (CFA treated), days 0-7) was 34%. For the same molecule, the “% Inhibition of swelling in each time interval relative to negative control” value ([1]; right hind paw (CFA treated), days 0-14) was 73%, the “% Inhibition of swelling in each time interval relative to negative control” value ([1]; right hind paw (CFA treated), days 0-21) was 83% and the “therapeutic dose as percentage of maximum tolerated dose” value ([2]; mice, intraperitoneal, once daily for 6 weeks) was “twice as high”. The “signs of anaemia at the end of the study (red blood cell count, FIG. 3)” value ([2]; mouse, in vivo) was “severe signs of anaemia” and the “fraction undergoing fast elimination unchanged after uptake” value [3] was “more than 80%”.
